The structures appear in SMILES notation. Where only a bound is given, the exact number is not on record here.

The target in the assay is T1, GR (Homo sapiens, UniProt P04150).
T1 construct: expressed in transfected cells; host or cells: CHO-K1
T1 sequence (P04150 1-777): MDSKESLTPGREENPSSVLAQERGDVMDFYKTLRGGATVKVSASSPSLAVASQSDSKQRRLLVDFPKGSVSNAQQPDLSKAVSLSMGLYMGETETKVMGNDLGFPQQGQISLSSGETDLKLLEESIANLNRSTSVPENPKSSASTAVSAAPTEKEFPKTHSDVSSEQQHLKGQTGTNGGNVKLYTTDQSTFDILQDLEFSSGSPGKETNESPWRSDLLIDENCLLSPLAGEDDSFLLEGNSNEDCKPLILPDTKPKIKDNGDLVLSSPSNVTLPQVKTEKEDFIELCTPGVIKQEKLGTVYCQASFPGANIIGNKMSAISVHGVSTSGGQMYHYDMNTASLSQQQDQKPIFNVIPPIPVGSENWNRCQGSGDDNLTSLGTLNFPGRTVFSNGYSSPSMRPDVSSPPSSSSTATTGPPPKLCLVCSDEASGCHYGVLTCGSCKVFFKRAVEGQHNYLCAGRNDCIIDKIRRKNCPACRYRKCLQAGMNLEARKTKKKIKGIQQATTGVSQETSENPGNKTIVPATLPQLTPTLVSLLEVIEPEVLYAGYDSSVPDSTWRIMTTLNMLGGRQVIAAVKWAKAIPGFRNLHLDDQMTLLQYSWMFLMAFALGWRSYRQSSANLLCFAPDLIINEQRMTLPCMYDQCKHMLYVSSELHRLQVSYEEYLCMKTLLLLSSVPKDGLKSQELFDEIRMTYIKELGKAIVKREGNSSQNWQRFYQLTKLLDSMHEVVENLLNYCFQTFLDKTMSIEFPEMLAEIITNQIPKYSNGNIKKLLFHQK
In words: In Vitro GR Luciferase Reporter Assay (antagonist mode, CHO-K1-GR-MMTV-Luc reporter cells). The format is cell-based. The conditions noted are these: antagonist mode, 10 nM Dexamethasone. The procedure, abridged:
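CHO-K1-GR-MMTV-Luc cells in phenol red-free DMEM with 10% CSS, stimulated with 10 nM dexamethasone (final) and treated with 8-point 1:5 compound dilutions for about 18-24 h at 37° C. Luciferase measured by OneGlo luminescence; IC50 derived for inhibition of GR activity.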
In general terms: Reporter assays use an easily measured gene product as a stand-in for the process of interest.
As for `O=C(c1ncc(C(F)(F)F)s1)[C@]12Cc3cnn(-c4ccc(F)cc4)c3C=C1CC[C@H](N(C1CC1)S(=O)(=O)c1ccc(Cl)nc1)C2` [Example 271, 6-chloro-N-cyclopropyl-N-((4aS,6S)-1-(4-fluorophenyl)-4a-(5-(trifluoromethyl)thiazole-2-carbonyl)-4,4a,5,6,7,8-hexahydro-1H-benzo[f]indazol-6-yl)pyridine-3-sulfonamide], the IC50 is ≤ 100 nM. The value for `O=C(c1cc(F)ccn1)[C@]12Cc3cnn(-c4ccc(F)cc4)c3C=C1CC[C@H](N(CC1CC1)S(=O)(=O)c1ccc(F)cc1)C2` [Example 274, N-(cyclopropylmethyl)-4-fluoro-N-((4aS,6S)-1-(4-fluorophenyl)-4a-(4-fluoropicolinoyl)-4,4a,5,6,7,8-hexahydro-1H-benzo[f]indazol-6-yl)benzenesulfonamide] was ≤ 100 nM. The value for `O=C(c1cc(Cl)ccn1)[C@]12Cc3cnn(-c4ccc(F)cc4)c3C=C1CC[C@H](N(CC1CC1)S(=O)(=O)c1ccc(F)cc1)C2` [Example 275, N-((4aS,6S)-4a-(4-chloropicolinoyl)-1-(4-fluorophenyl)-4,4a,5,6,7,8-hexahydro-1H-benzo[f]indazol-6-yl)-N-(cyclopropylmethyl)-4-fluorobenzenesulfonamide] was ≤ 100 nM. As to `O=C(c1cc(Cl)ccn1)[C@]12Cc3cnn(-c4ccc(F)cc4)c3C=C1CC[C@H](N(CC1(O)CC1)S(=O)(=O)c1ccc(F)cc1)C2` [Example 276, N-((4aS,6S)-4a-(4-chloropicolinoyl)-1-(4-fluorophenyl)-4,4a,5,6,7,8-hexahydro-1H-benzo[f]indazol-6-yl)-4-fluoro-N-((1-hydroxycyclopropyl)methyl) benzenesulfonamide], the IC50 is ≤ 100 nM. As for `CC(C)N([C@H]1CCC2=Cc3c(cnn3-c3ccc(F)cc3)C[C@]2(C(=O)c2cc(F)ccn2)C1)S(=O)(=O)c1cnn(C)n1` [Example 278, N-((4aS,6S)-1-(4-fluorophenyl)-4a-(4-fluoropicolinoyl)-4,4a,5,6,7,8-hexahydro-1H-benzo[f]indazol-6-yl)-N-isopropyl-2-methyl-2H-1,2,3-triazole-4-sulfonamide], the IC50 is ≤ 100 nM. The same measure for `CC(C)N(C(=O)C1CCCC1)[C@H]1CCC2=Cc3c(cnn3-c3ccc(F)cc3)C[C@]2(C(=O)c2ncc(C(F)(F)F)s2)C1` [Example 281, N-((4aS,6S)-1-(4-fluorophenyl)-4a-(5-(trifluoromethyl)thiazole-2-carbonyl)-4,4a,5,6,7,8-hexahydro-1H-benzo[f]indazol-6-yl)-N-isopropylcyclopentanecarbox-amide]: ≤ 100 nM; for `Cn1ccc(S(=O)(=O)N([C@H]2CCC3=Cc4c(cnn4-c4ccc(F)cc4)C[C@]3(C(=O)c3cc(F)ccn3)C2)[C@H]2C[C@@](C)(O)C2)n1` [Example 284, N-((4aS,6S)-1-(4-fluorophenyl)-4a-(4-fluoropicolinoyl)-4,4a,5,6,7,8-hexahydro-1H-benzo[f]indazol-6-yl)-N-((1s,3R)-3-hydroxy-3-methylcyclobutyl)-1-methyl-1H-pyrazole-3-sulfonamide]: ≤ 100 nM. `O=C(c1cc(C(F)(F)F)ccn1)[C@]12Cc3cnn(-c4ccc(F)cc4)c3C=C1CC[C@H](N(C1CC1)S(=O)(=O)c1ccc(C(F)(F)F)nc1)C2` [Example 285, N-cyclopropyl-N-((4aS,6S)-1-(4-fluorophenyl)-4a-(4-(trifluoromethyl)picolinoyl)-4,4a,5,6,7,8-hexahydro-1H-benzo[f]indazol-6-yl)-6-(trifluoromethyl)pyridine-3-sulfonamide]: the IC50 is ≤ 100 nM. The value for `O=C(c1ccc(F)cc1)N(C1CC1)[C@H]1CCC2=Cc3c(cnn3-c3ccc(F)cc3)C[C@]2(C(=O)c2ncc(C(F)(F)F)s2)C1` [Example 291, N-cyclopropyl-4-fluoro-N-((4aS,6S)-1-(4-fluorophenyl)-4a-(5-(trifluoromethyl)thiazole-2-carbonyl)-4,4a,5,6,7,8-hexahydro-1H-benzo[f]indazol-6-yl)benzamide] was 100 to 1000 nM. The value for `Cn1ncc(S(=O)(=O)N(CC2(O)CC2)[C@H]2CCC3=Cc4c(cnn4-c4ccc(F)cc4)C[C@]3(C(=O)c3ncc(C(F)(F)F)s3)C2)n1` [Example 292, N-((4aS,6S)-1-(4-fluorophenyl)-4a-(5-(trifluoromethyl)thiazole-2-carbonyl)-4,4a,5,6,7,8-hexahydro-1H-benzo[f]indazol-6-yl)-N-((1-hydroxycyclopropyl)methyl)-2-methyl-2H-1,2,3-triazole-4-sulfonamide] was ≤ 100 nM.

Consider `Cn1cc(S(=O)(=O)N(CC2CC2)[C@H]2CCC3=Cc4c(cnn4-c4ccc(F)cc4)C[C@]3(C(=O)c3cc(F)ccn3)C2)nn1` [Example 297, N-(cyclopropylmethyl)-N-((4aS,6S)-1-(4-fluorophenyl)-4a-(4-fluoropicolinoyl)-4,4a,5,6,7,8-hexahydro-1H-benzo[f]indazol-6-yl)-1-methyl-1H-1,2,3-triazole-4-sulfonamide], for which the IC50 was ≤ 100 nM. For `Cn1cc(S(=O)(=O)N(CC(C)(C)O)[C@H]2CCC3=Cc4c(cnn4-c4ccc(F)cc4)C[C@]3(C(=O)c3ncc(C(F)(F)F)s3)C2)nn1` [Example 301, N-((4aS,6S)-1-(4-fluorophenyl)-4a-(5-(trifluoromethyl)thiazole-2-carbonyl)-4,4a,5,6,7,8-hexahydro-1H-benzo[f]indazol-6-yl)-N-(2-hydroxy-2-methylpropyl)-1-methyl-1H-1,2,3-triazole-4-sulfonamide], the IC50 was ≤ 100 nM.

For `CC(C)(O)CN([C@H]1CCC2=Cc3c(cnn3-c3ccc(F)cc3)C[C@]2(C(=O)c2cc(C(F)(F)F)ccn2)C1)S(=O)(=O)c1ccc(Cl)nc1` [Example 302, 6-chloro-N-((4aS,6S)-1-(4-fluorophenyl)-4a-(4-(trifluoromethyl)picolinoyl)-4,4a,5,6,7,8-hexahydro-1H-benzo[f]indazol-6-yl)-N-(2-hydroxy-2-methylpropyl)pyridine-3-sulfonamide], the IC50 is ≤ 100 nM. With `CC(C)(O)CN([C@H]1CCC2=Cc3c(cnn3-c3ccc(F)cc3)C[C@]2(C(=O)c2ncc(C(F)(F)F)s2)C1)S(=O)(=O)c1ccc(Cl)nc1` [Example 303, 6-chloro-N-((4aS,6S)-1-(4-fluorophenyl)-4a-(5-(trifluoromethyl)thiazole-2-carbonyl)-4,4a,5,6,7,8-hexahydro-1H-benzo[f]indazol-6-yl)-N-(2-hydroxy-2-methylpropyl)pyridine-3-sulfonamide], the IC50 is ≤ 100 nM. The same measure for `CC(C)(O)CN([C@H]1CCC2=Cc3c(cnn3-c3ccc(F)cc3)C[C@]2(C(=O)c2cc(F)ccn2)C1)S(=O)(=O)c1ccc(Cl)nc1` [Example 304, 6-chloro-N-((4aS,6S)-1-(4-fluorophenyl)-4a-(4-fluoropicolinoyl)-4,4a,5,6,7,8-hexahydro-1H-benzo[f]indazol-6-yl)-N-(2-hydroxy-2-methylpropyl)pyridine-3-sulfonamide]: ≤ 100 nM. The value for `Cn1cc(S(=O)(=O)[C@H]2CCC3=Cc4c(cnn4-c4ccc(F)cc4)C[C@]3(C(=O)c3cc(F)ccn3)C2)cn1` [Example 314, ((4aS,6S)-1-(4-fluorophenyl)-6-((1-methyl-1H-pyrazol-4-yl)sulfonyl)-1,4,5,6,7,8-hexahydro-4aH-benzo[f]indazol-4a-yl)(4-fluoropyridin-2-yl)methanone] was ≤ 100 nM.

Regarding `Cn1cnc(S(=O)(=O)N(CC2CC2)[C@H]2CCC3=Cc4c(cnn4-c4ccc(F)cc4)C[C@]3(C(=O)c3cc(C(F)(F)F)ccn3)C2)n1` [Example 316, N-(cyclopropylmethyl)-N-((4aS,6S)-1-(4-fluorophenyl)-4a-(4-(trifluoromethyl)picolinoyl)-4,4a,5,6,7,8-hexahydro-1H-benzo[f]indazol-6-yl)-1-methyl-1H-1,2,4-triazole-3-sulfonamide], the IC50 is ≤ 100 nM. Take `Cn1cc(S(=O)(=O)[C@H]2CCC3=Cc4c(cnn4-c4ccc(F)cc4)C[C@]3(C(=O)c3cc(Cl)ccn3)C2)cn1` [Example 317, (4-chloropyridin-2-yl)((4aS,6S)-1-(4-fluorophenyl)-6-((1-methyl-1H-pyrazol-4-yl)sulfonyl)-1,4,5,6,7,8-hexahydro-4aH-benzo[f]indazol-4a-yl)methanone]: the IC50 is ≤ 100 nM. The value for `Cn1cc(S(=O)(=O)N(CC(F)(F)F)[C@H]2CCC3=Cc4c(cnn4-c4ccc(F)cc4)C[C@]3(C(=O)c3cc(C(F)(F)F)ccn3)C2)nn1` [Example 318, N-((4aS,6S)-1-(4-fluorophenyl)-4a-(4-(trifluoromethyl)picolinoyl)-4,4a,5,6,7,8-hexahydro-1H-benzo[f]indazol-6-yl)-1-methyl-N-(2,2,2-trifluoroethyl)-1H-1,2,3-triazole-4-sulfonamide] was ≤ 100 nM.

A word on the IC50: it is the midpoint of a concentration-inhibition curve.

These data come from patent publication US20210122730A1, “GLUCOCORTICOID RECEPTOR MODULATORS” (ORIC Pharmaceuticals, Inc., priority 2017, published 2021).
